Results published in patent US9056096B2, “Hyaluronic acid decomposition-promoting factor and inhibitor thereof” (Kao Corporation, priority 2010, dated 2015).

What was measured:
KIAA1199/HEK293 cells = assay: Inhibitor experiment: [3H]HA decomposition in HEK293 cells stably expressing KIAA1199; type: cell-based, human; settings: preliminary treatment with inhibitor 3 hours, then 6 hours with [3H]HA
Description: Cells were cultured in a medium containing [^3H]HA (40,000 dpm/mL) to confluent. […] The medium was eluted with 0.5% NaCl at 0.65 mL/min, and fractions (each 2.55 mL) were collected. The radioactivity of each fraction was measured.
Cells were cultured in a medium containing G418, and stable transformants were selected.
Cells were incubated for 3 hours with an inhibitor at a predetermined concentration and then incubated for 6 hours with [^3H]HA in the presence of the inhibitor.
In order to investigate the hyaluronic acid decomposition mechanism by the mediation of KIAA1199, HEK293 cells (KIAA1199/HEK293), in which KIAA1199 is consistently expressed, were established.

KIAA1199 mRNA [1] = assay: Induction of KIAA1199 mRNA expression in cultured RA synovial cells; type: cell-based, human; settings: inflammatory mediator added to cultured RA synovial cells
Description: (§1) Western blotting was performed through a standard method. In real-time PCR, total RNA was separated by use of RNeasy (Qiagen), and cDNA was synthesized by means of High Capacity cDNA Archive kit (Applied Biosystems, Foster City, Calif.).
Meanwhile, PGE2 (i.e., an inflammatory mediator) and several cytokines such as IL-1, IL-6, and TNF-α are present at high levels in synovial fluid of RA patients. Therefore, whether or not expression of KIAA1199 in RA synovial cells is induced by such an inflammatory mediator was investigated.

KIAA1199 mRNA [2] = settings: stimulation with histamine
Description: as §1, with “Calif.). Real-time PCR was performed through TaqMan (registered trademark) technique and by means of an apparatus ABI Prism 7700 (Applied Biosystems, Foster City, Calif.).” for “Calif.).”

[3] = system: cultured normal human skin fibroblasts (Detroit551); assay: [3H]HA decomposition assay using cultured normal human skin fibroblasts; type: cell-based; settings: for decomposition of hyaluronic acid by cultured fibroblasts: exogenously added [3H]HA, substance added to the culture
Description: Normal human skin fibroblasts (Detroit 551, ATCC (American Type Culture Collection), HS-27, NHDF) were cultured in an Eagle's minimal essential medium (MEM) (MP Biomedicals, Solon, Ohio) supplemented with essential amino acids, 1 mM sodium pyruvate, and 10% (vol/vol) fetal bovine serum (FBS) (JRH Biosciences, Kansas). HEK293, COS-7 cells, and human synovial fibroblasts (TOYOBO) were maintained in a Dulbecco's modified Eagle's medium (Sigma) containing 10% fetal bovine serum, 100-units/mL penicillin, and 100-μg/mL streptomycin. Culturing was performed at 37° C. in a humidified atmosphere containing 5% CO2.
[^3H]-labeled hyaluronic acid ([^3H]HA) was prepared though a slightly modified method of Underhill, Toole, et al. (C. B. Underhill and B. P. Toole, Binding of hyaluronate to the surface of cultured cells. J. Cell Biol. 82 (1979) 475-84). Specifically, confluent Detroit 551 fibroblasts were incubated with D-[1,6-^3H(N)]glucosamine hydrochloride (10-μCi/mL). A conditioned medium was pooled, and the incubated cells were digested with pronase (0.3 mg/mL) and precipitated in ethanol. The formed pellets were suspended in water and re-precipitated with 1.5% cetylpyridinium chloride and 0.03M NaCl. The thus-formed pellets were dissolved in 0.1% cetylpyridinium chloride and 0.4M NaCl and re-precipitated again in ethanol. The thus-formed pellets were suspended in 5 mM phosphate buffer (pH: 7.5), and the suspension was applied to a Sepharose CL-2B column (10×600 mm) equilibrated with 0.5% NaCl. Vo fractions were collected, and the product was precipitated in ethanol. Finally, the product was dissolved in 5 mM phosphate buffer (pH: 7.5).
Cells were cultured in a medium containing [^3H]HA (40,000 dpm/mL) to confluent. After incubation, the medium was removed and applied to a Sepharose CL-2B column (10×600 mm). The medium was eluted with 0.5% NaCl at 0.65 mL/min, and fractions (each 2.55 mL) were collected. The radioactivity of each fraction was measured.
siRNAs (TT2 cohesive end, non-modified) each having 25 nucleotides with respect to KIAA1199, HYAL2, CD44, and a negative control were purchased from Invitrogen (Carlsbad, Calif.). Each siRNA was incorporated by use of Lipofectamine RNAiMAX (Invitrogen, Carlsbad, Calif.).

[4] = after stimulation with histamine

Row | Molecule | decomposition of hyaluronic acid in KIAA1199/HEK293 cells (KIAA1199/HEK293 cells) | expression of KIAA1199 mRNA in RA synovial cells (KIAA1199 mRNA [1]) | other results
1 | O=C(O)CN(CCN(CC(=O)O)CC(=O)O)CC(=O)O [EDTA] | inhibited |  | 
2 | CCN1C(=O)C=CC1=O [N-ethylmaleimide] | inhibited |  | 
3 | CCCCC[C@H](O)/C=C/[C@H]1[C@H](O)CC(=O)[C@@H]1C/C=C\CCCC(=O)O [PGE2, prostaglandin E2] |  | stimulate expression | 
4 | CO/C1=C\C(C)=C\[C@@H](C)[C@@H](O)[C@@H](C)C/C(C)=C/C=C/[C@H](OC)[C@@H]([C@@H](C)[C@@H](O)[C@H](C)[C@@]2(O)C[C@@H](O)[C@H](C)[C@@H](C(C)C)O2)OC1=O [bafilomycin A1] | inhibited |  | 
5 | CN(C)CCCN1c2ccccc2Sc2ccc(Cl)cc21 [chlorpromazine] | inhibited |  | 
6 | NCCc1c[nH]cn1 [histamine] |  |  | increase in expression level of KIAA1199 mRNA (KIAA1199 mRNA [2]): 3.7 times; Vmax of hyaluronic acid decomposition by cells [3, 4]: 1,370 μg/10^5 cells/3 days; apparent Km of hyaluronic acid decomposition by cells [3, 4]: 1,500 μg/mL; increase of Vmax of hyaluronic acid decomposition ([3]; after stimulation with histamine, versus unstimulated cells): 3.7 times; decomposition of hyaluronic acid by cultured fibroblasts [3]: up-regulated
7 | CC[C@@]1([C@@H]2O[C@@H]([C@H]3O[C@@](O)(CO)[C@H](C)C[C@@H]3C)C[C@@H]2C)CC[C@H]([C@]2(C)CC[C@]3(C[C@H](O)[C@@H](C)[C@@H]([C@@H](C)[C@@H](OC)[C@H](C)C(=O)O)O3)O2)O1 [monensin] | inhibited |  | 
8 | O=c1cc(-c2ccc(O)c(O)c2)oc2c([C@@H]3O[C@H](CO)[C@@H](O)[C@H](O)[C@H]3O)c(O)cc(O)c12 [orientin] | inhibited |  | 
9 | IL-6: cytokine, RA-related inflammatory mediator |  | stimulate expression | 
10 | IL-β: cytokine, RA-related inflammatory mediator (probably IL-1β) |  | stimulate expression | 
11 | TGF-[3]: TGF-β1, down-regulates hyaluronic acid decomposition in fibroblasts |  |  | decomposition of hyaluronic acid by cultured fibroblasts [3]: down-regulated
12 | heparin |  |  | decomposition of hyaluronic acid by cultured fibroblasts [3]: inhibited
13 | IL-1α: cytokine, RA-related inflammatory mediator (protein, UniProt P01583 113-271, looked up) Interleukin-1 alpha: SAPFSFLSNVKYNFMRIIKYEFILNDALNQSIIRANDQYLTAAALHNLDEAVKFDMGAYKSSKDDAKITVILRISKTQLYVTAQDEDQPVLLKEMPEIPKTITGSETNLLFFWETHGTKNYFTSVAHPNLFIATKQDYWVCLAGGPPSITDFQILENQA |  | stimulate expression | 
